Assays:
[1] = Adsorption and release of various antibiotics on ultra-stable zeolite Y (USY); type: physicochemical; conditions: for Amount antibiotic in 20 mg zeolite/ml: USY suspended to 20 mg/ml; for Release concentration of antibiotic: dried USY suspended to 20 mg/ml in buffer; for Amount adsorbed antibiotic/mg zeolite: ultra-stable zeolite Y (USY), amount calculated
Protocol: This example illustrates adsorption and release of various antibiotics. Ultra-stable zeolite Y (USY) was incubated with various antibiotics and the amounts absorbed to the zeolite were calculated. Then the zeolite was dried and suspended to 20 mg/ml in buffer and the concentrations of released antibiotics in the solutions were determined.

[2] = Release of cephalothin from ultra-stable zeolite Y (USY) at pH 2.5 and pH 8.0; type: physicochemical; conditions: 20 mg/ml USY; 10 mM phosphate buffer pH 8.0 after 10 mM glycin pH 2.5
Protocol: This example illustrates release of cephalothin from ultra-stable zeolite Y (USY) and is described with reference to the diagram in FIG. 10.
Ultra-stable zeolite Y (USY) was incubated with the antibiotic cephalothin 5 mg/ml after which the zeolite was sucked dry and further dried in warm closet. Zeolite with adsorbed cephalothin was suspended repeatedly to 20 mg/ml in 10 mM glycin pH 2.5 (▪) and the concentration of cephalothin in the solutions was determined by absorbency measurement at 260 nm. Then the zeolite was suspended in 10 mM phosphate buffer pH 8.0 (●).

[3] = test system: Staphylococcus aureus (ATCC 6538); test: Growth inhibition of Staphylococcus aureus by m-cresol adsorbed on zeolite USY (Eur. Pharm. efficacy of antimicrobial preservation); type: cell-based; conditions: 5 mg m-cresol/ml dissolved in water, positive control
Protocol: This example illustrates growth inhibition of Staphylococcus aureus (ATCC 6538), FU ml-1) after incubation with m-cresol adsorbed on zeolite. Test according to Eur. Pharm. nd Ed. VIII 14 (1992). Efficacy of antimicrobial preservation.
Ultra-stable zeolite Y (USY, 63-125 μm particles) was incubated with m-cresol […] after which the zeolite was sucked dry and further dried in warm closet overnight. Zeolite with adsorbed m-cresol was then suspended in PBS and was incubated with Staphylococcus aureus at 37° C. The concentration of m-cresol in the solution after the suspension of zeolite was 0.14 mg/ml.

Row | Compound | Amount antibiotic in 20 mg zeolite/ml [1] | Release concentration of antibiotic [1] | Amount adsorbed antibiotic/mg zeolite [1] | also measured
1 | CN(C)[C@@H]1C(=O)C(C(N)=O)=C(O)[C@@]2(O)C(=O)C3=C(O)c4c(O)cccc4[C@@](C)(O)[C@H]3C[C@@H]12 [Tetracyclin] | 1.8 mg/mL | 220 µg/mL | 0.09 mg | –
2 | Gentamycin | 3.6 mg/mL | – | 0.18 mg | –
3 | [H]/N=C(/N)N[C@H]1[C@H](O)[C@@H](O)[C@H](O[C@@H]2O[C@@H](C)[C@](O)(C=O)[C@H]2O[C@@H]2O[C@@H](CO)[C@H](O)[C@@H](O)[C@@H]2NC)[C@@H](N/C(N)=N\[H])[C@@H]1O [Streptomycin] | 9.6 mg/mL | 4800 µg/mL | 0.48 mg | –
4 | O=C(N[C@H](CO)[C@H](O)c1ccc([N+](=O)[O-])cc1)C(Cl)Cl [Chloramphemicol] | 2.5 mg/mL | 7 µg/mL | 0.125 mg | –
5 | CC1(C)S[C@@H]2[C@H](NC(=O)[C@H](N)c3ccccc3)C(=O)N2[C@H]1C(=O)O [Ampicilin] | 2.8 mg/mL | 400 µg/mL | 0.14 mg | –
6 | CC(=O)OCC1=C(C(=O)O)N2C(=O)[C@@H](NC(=O)Cc3cccs3)[C@H]2SC1 [Cephalothin] | 4.2 mg/mL | 4.6 µg/mL | 0.21 mg | release of cephalothin from the zeolite on change of pH [2]: increased release
7 | Cc1cccc(O)c1 [Free m-cresol, m-cresol] | – | – | – | CFU/ml ([3]; incubation time 0 h): 5.9 × 10^6 CFU/ml; CFU/ml ([3]; incubation time 2 h): 1.2 × 10^2 CFU/ml; CFU/ml ([3]; incubation time 4 h): 24 CFU/ml; CFU/ml ([3]; incubation time 8 h): 3 CFU/ml; CFU/ml ([3]; incubation time 24 h): 0 CFU/ml; CFU/ml ([3]; incubation time 48 h): 0 CFU/ml

— US20030087753A1, “System for microbial control of a fluid” (priority 2001, published 2003)
